Consider one compound from patent US20240082238A1, “COMPOSITIONS AND METHODS FOR TREATING CANCER” (UNIVERSITY OF IOWA RESEARCH FOUNDATION, priority 2021, published 2024).

Like-named read-outs stand apart in the source and are kept apart here.

The subject of assay [1] is Hec50co cells. The experiment in a line: Cytotoxicity assay (MTS), Hec50co cells. The assay is classed as cell-based, human. The note with it: 72 h; for IC50: Homo sapiens. On the procedure:
Cytotoxicity assay. Hec50co cells were seeded at 1500 cells per well in 96-well plates for 24 h in a complete medium. Later, the medium was removed and PTX, CIP2b, or CIP (all dissolved in DMSO and diluted in complete medium) were added to cells as either monotherapies or in combinations, and the plates were incubated for 72 hours. Then, the complete medium was removed and MTS reagent in the complete medium was added to wells, and the plates were incubated for 1-4 hours according to the manufacturer's protocol. Finally, the absorbance was recorded at 490 nm using a Spectra Max plus 384 Microplate Spectrophotometer (Molecular Devices, Sunnyvale, CA). Percentage cell viability was expressed as the average absorbance of the test group relative to that of the control group (untreated cells). The concentration that inhibits proliferation of 50% of cells compared to control (IC50) was calculated using GraphPad Prism (La Jolla, CA). Synergism was detected following the Chou-Talalay method (CI<1 indicates synergism) (Chou T C. Cancer research. 2010; 70(2):440-6, doi: 10.1158/0008-5472.CAN-09-1947) using CompuSyn software (Ver. 1.0). […]

For assay [2], the system named is LLC-PK1-WT cells. The experiment in a line: Cytotoxicity assay (MTS), LLC-PK1-WT cells. The assay is classed as cell-based, porcine. The settings on record: Sus scrofa; PTX alone, 72 h. On the procedure:
Cytotoxicity assay. Hec50co cells were seeded at 1500 cells per well in 96-well plates for 24 h in a complete medium. Later, the medium was removed and PTX, CIP2b, or CIP (all dissolved in DMSO and diluted in complete medium) were added to cells as either monotherapies or in combinations, and the plates were incubated for 72 hours. Then, the complete medium was removed and MTS reagent in the complete medium was added to wells, and the plates were incubated for 1-4 hours according to the manufacturer's protocol. Finally, the absorbance was recorded at 490 nm using a Spectra Max plus 384 Microplate Spectrophotometer (Molecular Devices, Sunnyvale, CA). Percentage cell viability was expressed as the average absorbance of the test group relative to that of the control group (untreated cells). The concentration that inhibits proliferation of 50% of cells compared to control (IC50) was calculated using GraphPad Prism (La Jolla, CA). Synergism was detected following the Chou-Talalay method (CI<1 indicates synergism) (Chou T C. Cancer research. 2010; 70(2):440-6, doi: 10.1158/0008-5472.CAN-09-1947) using CompuSyn software (Ver. 1.0).
P-gp efflux transporter. Overexpression of the MDR1 gene, reflected in the abundance of the P-gp efflux pump, is one of the major reasons for PTX chemoresistance in cancer. In this study, LLC-PK1-WT and LLC-PK1-MDR1 cell lines were used. […]

The target of assay [3] is T1, human Topo IIα (Homo sapiens, UniProt P11388).
T1 construct: purchased TopoGEN Inc. TG1001-1A
T1 sequence (P11388 whole entry): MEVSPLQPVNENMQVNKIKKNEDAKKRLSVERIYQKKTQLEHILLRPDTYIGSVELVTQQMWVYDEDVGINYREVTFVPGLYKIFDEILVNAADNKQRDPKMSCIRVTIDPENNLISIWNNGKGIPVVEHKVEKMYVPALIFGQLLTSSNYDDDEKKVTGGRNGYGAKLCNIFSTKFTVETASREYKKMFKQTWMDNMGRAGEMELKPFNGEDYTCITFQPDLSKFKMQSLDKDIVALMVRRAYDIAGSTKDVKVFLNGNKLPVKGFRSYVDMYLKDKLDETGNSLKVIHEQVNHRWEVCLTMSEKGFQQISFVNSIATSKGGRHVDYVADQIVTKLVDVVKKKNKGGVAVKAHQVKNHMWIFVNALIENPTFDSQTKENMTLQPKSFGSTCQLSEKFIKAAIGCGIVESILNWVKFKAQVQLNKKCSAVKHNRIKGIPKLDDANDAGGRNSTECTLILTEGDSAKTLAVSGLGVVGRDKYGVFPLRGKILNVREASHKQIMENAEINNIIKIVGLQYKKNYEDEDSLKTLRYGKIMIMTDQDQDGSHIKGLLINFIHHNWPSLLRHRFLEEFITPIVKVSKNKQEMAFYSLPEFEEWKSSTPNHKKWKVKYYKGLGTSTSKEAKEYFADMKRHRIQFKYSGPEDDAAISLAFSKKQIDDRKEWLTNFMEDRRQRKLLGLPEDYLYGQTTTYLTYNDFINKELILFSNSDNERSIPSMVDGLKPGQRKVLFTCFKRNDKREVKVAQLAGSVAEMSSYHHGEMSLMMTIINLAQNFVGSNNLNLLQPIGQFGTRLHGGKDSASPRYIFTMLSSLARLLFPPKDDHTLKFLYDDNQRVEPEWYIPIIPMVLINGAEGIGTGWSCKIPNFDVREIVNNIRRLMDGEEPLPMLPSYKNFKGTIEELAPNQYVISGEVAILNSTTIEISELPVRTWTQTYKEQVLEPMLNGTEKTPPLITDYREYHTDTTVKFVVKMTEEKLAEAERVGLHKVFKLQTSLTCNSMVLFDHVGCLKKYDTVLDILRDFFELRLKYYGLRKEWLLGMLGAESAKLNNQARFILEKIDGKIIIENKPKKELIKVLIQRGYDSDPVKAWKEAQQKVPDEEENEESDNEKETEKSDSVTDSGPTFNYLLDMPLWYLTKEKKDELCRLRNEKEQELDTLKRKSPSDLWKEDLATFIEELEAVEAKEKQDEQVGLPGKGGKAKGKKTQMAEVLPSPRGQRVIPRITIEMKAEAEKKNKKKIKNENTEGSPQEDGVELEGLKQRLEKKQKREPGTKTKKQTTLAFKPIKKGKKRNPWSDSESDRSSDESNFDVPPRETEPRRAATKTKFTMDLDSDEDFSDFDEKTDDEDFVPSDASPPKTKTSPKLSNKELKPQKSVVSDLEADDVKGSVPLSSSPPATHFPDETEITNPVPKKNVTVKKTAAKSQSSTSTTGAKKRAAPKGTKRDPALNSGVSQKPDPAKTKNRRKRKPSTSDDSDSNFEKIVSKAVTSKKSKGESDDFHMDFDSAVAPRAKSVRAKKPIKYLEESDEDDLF
Kind of assay: Topoisomerase II inhibition assay (plasmid-based). Type of assay: biochemical. The note with it: drug final concentration 100 μM; read-out: percentage of Topo II inhibition. On the procedure: Topoisomerase II inhibition assay. A plasmid-based Topo II assay (Cat. No. TG1001-1A, TopoGEN Inc., Buena Vista, CO) was performed according to the manufacturer's instructions. In this experiment, 1 μL of tested compounds (PTX, CIP, CIP2b, ETO) at a concentration of 2 mM was mixed with 4 μL of the reaction buffer (mixture of buffer A (0.5 M Tris-HCl (pH 8), 1.50 M NaCl, 100 mM MgCl2, 5 mM Dithiothreitol, 300 μg BSA/mL) and buffer B (10× ATP Buffer), and deionized water was added to make 18 μL solution. This was followed by adding 1 μL of catenated DNA and 1 μL of human Topo IIα (8 U/μL) (drug final concentration was 100 μM). Additionally, decatenated DNA (De-CT DNA) and catenated DNA (CT DNA)±Topo II were used as a control (i.e., not containing drugs). Moreover, relaxed DNA was added as another control in this assay. Similar to Topo I assay, samples were then incubated on a heating block set at 37° C. for 30 minutes. Then, the reaction was stopped by the addition of a 5× stop buffer. Samples were then loaded directly into the wells of a 1% agarose gel containing 1 μg/mL ethidium bromide. The gel was run at 150 V until the dye front had traveled approximately 5 cm (run time was approximately 2 h). The gel was then washed with deionized water for 30 minutes before imaging. The image was taken using an Invitrogen iBright CL1500 Imaging System. The intensity of the final bands in the gel was quantified using ImageJ, and the results are expressed as the percentage of Topo II inhibition.

For assay [4], the system named is Hec50co tumors. Kind of assay: Antitumor efficacy study, peritumoral SC injection. Type of assay: in vivo, athymic Nu/Nu mice. On the procedure: Antitumor efficacy study following subcutaneous injection (SC) at the tumor site (peritumoral). Female athymic Nu/Nu mice were subcutaneously challenged with Hec50co cells (1×10^6 cells/mouse). When mice had palpable tumors, they were randomly distributed into 3 groups: PBS group (n=3), PTX group (n=4), and PTX+CIP2b group (n=4). Then, treatments were administered subcutaneously near the tumor site (i.e., peritumorally) in five doses on days 26, 30, 33, 37, and 40 post-tumor challenge. Each dose consisted of 200 μL of either PBS, 5 mg/kg PTX (Paclitaxel concentrate diluted in DPBS), or 5 mg/kg PTX+5 mg/kg CIP2b (CIP2b in DPBS:Tween-80:ethanol 85:10:5; further dilution was made using DPBS). Body weights and tumor volumes (using Equation 2) were monitored twice a week for up to 2 weeks after the last dose (i.e., up to day 53 post-tumor challenge). On the last day of the study (day 53 post-tumor challenge), mice were euthanized, and tumors were collected and their weights were measured.

Take `CC(=O)O[C@H]1C(=O)[C@@]2(C)[C@H]([C@H](OC(=O)c3ccccc3)[C@]3(O)C[C@H](OC(=O)[C@H](O)[C@@H](NC(=O)c4ccccc4)c4ccccc4)C(C)=C1C3(C)C)[C@]1(OC(C)=O)CO[C@@H]1C[C@@H]2O` [PTX, paclitaxel]: the survival in assay [1] (0.1 nM PTX alone) is 100%. Moreover, in assay [1] (5 nM PTX as single compound), the cell survival entry is “about 80%”. For the same compound, the half-inhibitory concentration (IC50) (as a rule, the concentration at which inhibition is half-maximal) in assay [1] (10 μM CIP2b added, read-out: IC50 value of PTX) was found to be 3.1 nM; in assay [1] (25 μM CIP2b added, read-out: IC50 value of PTX), 2.15 nM; in assay [1] (PTX alone) it was 8.77 nM; in assay [2] it was 21.3 nM. In addition, the inhibition (in general, the share of the control response that was lost under treatment) at 100 µM in assay [3] is 8%. Further, the “average weight of tumors” value in assay [4] (day 53, SC treatment) is on record as “did not show a significant difference against either the untreated group or the combination group”. Further, the “average tumor volumes vs PBS” value in assay [4] (day 53, 5 mg/kg PTX SC, five doses) was “smaller than PBS control mice albeit not significantly”.
